Laboratory results as given in patent publication US8389523B2, “Substituted quinoxaline and an agrochemical composition thereof” (Kumiai Chemical Industry Co., Ltd., priority 2007, dated 2013).

Legend:
Type in all cases: in vivo
Design in all cases: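 grade 0 to 5 of growth suppression where 5 is 90% or more and 0 below 10%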
Amaranthus viridis L. [1] = test: Herbicidal effects in upland field soil treatment (Test Example 2); details: 1000 g active ingredient per hectare, 21st day after treatment, criteria of Table 138
Summary of the method: (§1)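 Upland soil, seeds sown and covered → diluted WP sprayed uniformly onto soil surface (1000 L/ha; 1000 g a.i./ha) → greenhouse → effect scored day 21.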

[2] = tested on: Abutilon theophrasti medicus; test: as above; details: 1000 g active ingredient per hectare, 21st day after treatment, criteria of Table 138
Summary of the method: as §1

[3] = tested on: Scirpus juncoides Roxb. var. ohwianus. T. Koyama; test: Herbicidal effects in paddy field soil treatment (Test Example 1); details: paddy field soil treatment; 1000 g of the active ingredient per hectare; wettable powder added dropwise on water surface; 21st day after treatment
Summary of the method: (§2)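 Sow seeds in puddled, leveled paddy soil; waterlog to 3 cm depth. On the following day apply water-diluted wettable powder onto the water surface (1000 g a.i./ha). Grow in greenhouse and assess herbicidal effect at day 21.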

[4] = tested on: Monochoria vaginalis (Burm. f.) Presl var. plantaginea (Roxb.) Solms-Laub.; test: as above; details: paddy field soil treatment; 1000 g of the active ingredient per hectare; wettable powder added dropwise on water surface; 21st day after treatment
Summary of the method: as §2

[5] = tested on: Echinochloa oryzicola Vasing; test: as above; details: paddy field soil treatment; 1000 g of the active ingredient per hectare; wettable powder added dropwise on water surface; 21st day after treatment
Summary of the method: as §2

[6] = tested on: Echinochloa crus-galli (L.) P. Beauv. var. crus-galli; test: Herbicidal effects in upland field foliar treatment (Test Example 3); details: 1000 g active ingredient per hectare, 14th day after treatment, criteria of Table 138
Summary of the method: (§3)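 Seeds sown in upland soil, grown 2 weeks in greenhouse; whole-plant overhead spray of diluted wettable powder at 1000 g a.i./ha (1000 L/ha); kept in greenhouse; effects graded by criteria at 14 d.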

Amaranthus viridis L. [7] = test: as above; details: 1000 g active ingredient per hectare, 14th day after treatment, criteria of Table 138
Summary of the method: as §3

[8] = tested on: Abutilon theophrasti medicus; test: as above; details: 1000 g active ingredient per hectare, 14th day after treatment, criteria of Table 138
Summary of the method: as §3

O=C1CCCC(O)=C1C(=O)c1nc2ccccc2n(COCC(F)(F)F)c1=O [I-59]
5: herbicidal effect (index) on Amaranthus viridis L. (Amaranthus viridis L. [1]) | herbicidal effect (index) on Abutilon theophrasti medicus [2] | Herbicidal effects index, Scirpus juncoides Roxb. var. ohwianus. T. Koyama [3] | Herbicidal effects index, Monochoria vaginalis (Burm. f.) Presl var. plantaginea (Roxb.) Solms-Laub. [4] | Herbicidal effects index, Echinochloa oryzicola Vasing [5] | herbicidal effect (index) on Echinochloa crus-galli (L.) P. Beauv. var. crus-galli [6] | herbicidal effect (index) on Amaranthus viridis L. (Amaranthus viridis L. [7]) | herbicidal effect (index) on Abutilon theophrasti medicus [8]

O=C(C1=C(O)C2CCC(C2)C1=O)c1nc2ccccc2n(COCC(F)(F)F)c1=O (stereo not shown) [I-62]
5: herbicidal effect (index) on Amaranthus viridis L. (Amaranthus viridis L. [1]) | herbicidal effect (index) on Abutilon theophrasti medicus [2] | Herbicidal effects index, Scirpus juncoides Roxb. var. ohwianus. T. Koyama [3] | Herbicidal effects index, Monochoria vaginalis (Burm. f.) Presl var. plantaginea (Roxb.) Solms-Laub. [4] | Herbicidal effects index, Echinochloa oryzicola Vasing [5] | herbicidal effect (index) on Echinochloa crus-galli (L.) P. Beauv. var. crus-galli [6] | herbicidal effect (index) on Amaranthus viridis L. (Amaranthus viridis L. [7]) | herbicidal effect (index) on Abutilon theophrasti medicus [8]

O=C1CCCC(O)=C1C(=O)c1nc2ccccc2n(COCC2CCCO2)c1=O (stereo not shown) [I-65]
5: herbicidal effect (index) on Amaranthus viridis L. (Amaranthus viridis L. [1]) | herbicidal effect (index) on Abutilon theophrasti medicus [2] | Herbicidal effects index, Scirpus juncoides Roxb. var. ohwianus. T. Koyama [3] | Herbicidal effects index, Monochoria vaginalis (Burm. f.) Presl var. plantaginea (Roxb.) Solms-Laub. [4] | herbicidal effect (index) on Amaranthus viridis L. (Amaranthus viridis L. [7]) | herbicidal effect (index) on Abutilon theophrasti medicus [8]
4: Herbicidal effects index, Echinochloa oryzicola Vasing [5] | herbicidal effect (index) on Echinochloa crus-galli (L.) P. Beauv. var. crus-galli [6]

N#CCCOCn1c(=O)c(C(=O)C2=C(O)CCCC2=O)nc2ccccc21 [I-68]
4: Herbicidal effects index, Echinochloa oryzicola Vasing [5] | herbicidal effect (index) on Echinochloa crus-galli (L.) P. Beauv. var. crus-galli [6]
5: herbicidal effect (index) on Amaranthus viridis L. (Amaranthus viridis L. [1]) | herbicidal effect (index) on Abutilon theophrasti medicus [2] | Herbicidal effects index, Scirpus juncoides Roxb. var. ohwianus. T. Koyama [3] | Herbicidal effects index, Monochoria vaginalis (Burm. f.) Presl var. plantaginea (Roxb.) Solms-Laub. [4] | herbicidal effect (index) on Amaranthus viridis L. (Amaranthus viridis L. [7]) | herbicidal effect (index) on Abutilon theophrasti medicus [8]

CSCn1c(=O)c(C(=O)C2=C(O)CCCC2=O)nc2ccccc21 [I-70]
5: herbicidal effect (index) on Amaranthus viridis L. (Amaranthus viridis L. [1]) | herbicidal effect (index) on Abutilon theophrasti medicus [2] | Herbicidal effects index, Scirpus juncoides Roxb. var. ohwianus. T. Koyama [3] | Herbicidal effects index, Monochoria vaginalis (Burm. f.) Presl var. plantaginea (Roxb.) Solms-Laub. [4] | Herbicidal effects index, Echinochloa oryzicola Vasing [5] | herbicidal effect (index) on Echinochloa crus-galli (L.) P. Beauv. var. crus-galli [6] | herbicidal effect (index) on Amaranthus viridis L. (Amaranthus viridis L. [7]) | herbicidal effect (index) on Abutilon theophrasti medicus [8]

O=C1CCCC(O)=C1C(=O)c1nc2ccccc2n(C2=NOCC2)c1=O [I-131]
5: herbicidal effect (index) on Amaranthus viridis L. (Amaranthus viridis L. [1]) | herbicidal effect (index) on Abutilon theophrasti medicus [2] | Herbicidal effects index, Scirpus juncoides Roxb. var. ohwianus. T. Koyama [3] | Herbicidal effects index, Monochoria vaginalis (Burm. f.) Presl var. plantaginea (Roxb.) Solms-Laub. [4] | Herbicidal effects index, Echinochloa oryzicola Vasing [5] | herbicidal effect (index) on Echinochloa crus-galli (L.) P. Beauv. var. crus-galli [6] | herbicidal effect (index) on Amaranthus viridis L. (Amaranthus viridis L. [7]) | herbicidal effect (index) on Abutilon theophrasti medicus [8]

O=C1CCCC(O)=C1C(=O)c1nc2ccccc2n(-c2ccsc2)c1=O [I-139]
5: herbicidal effect (index) on Amaranthus viridis L. (Amaranthus viridis L. [1]) | herbicidal effect (index) on Abutilon theophrasti medicus [2] | Herbicidal effects index, Scirpus juncoides Roxb. var. ohwianus. T. Koyama [3] | Herbicidal effects index, Monochoria vaginalis (Burm. f.) Presl var. plantaginea (Roxb.) Solms-Laub. [4] | Herbicidal effects index, Echinochloa oryzicola Vasing [5] | herbicidal effect (index) on Amaranthus viridis L. (Amaranthus viridis L. [7]) | herbicidal effect (index) on Abutilon theophrasti medicus [8]
4: herbicidal effect (index) on Echinochloa crus-galli (L.) P. Beauv. var. crus-galli [6]

O=C1CCCC(O)=C1C(=O)c1nc2ccccc2n(-c2ccon2)c1=O [I-144]
5: herbicidal effect (index) on Amaranthus viridis L. (Amaranthus viridis L. [1]) | herbicidal effect (index) on Abutilon theophrasti medicus [2] | Herbicidal effects index, Scirpus juncoides Roxb. var. ohwianus. T. Koyama [3] | Herbicidal effects index, Monochoria vaginalis (Burm. f.) Presl var. plantaginea (Roxb.) Solms-Laub. [4] | Herbicidal effects index, Echinochloa oryzicola Vasing [5] | herbicidal effect (index) on Echinochloa crus-galli (L.) P. Beauv. var. crus-galli [6] | herbicidal effect (index) on Amaranthus viridis L. (Amaranthus viridis L. [7]) | herbicidal effect (index) on Abutilon theophrasti medicus [8]
